Laboratory results as given in patent EP4799619A1, “COMPOUND TARGETING EGR-1 AND USE THEREOF FOR TREATMENT OF ATOPIC DERMATITIS” (AgeraMedi, Inc., priority 2023, dated 2025).

Target: EGR-1 (Homo sapiens, UniProt P18146)
Experiment: EGR-1 DNA binding activity assay (EDBA)
Parameters: made in house
Conditions: EGR-1 DNA binding inhibitory activity; EGR-1 overexpressing cell lysate; absorbance at 450 nm; compound concentration not given
Description: In this experiment, the inhibitory effect of the compounds of the present invention on EGR-1 binding activity was evaluated using an EGR-1 DNA binding activity assay (EDBA).
Single-stranded sense and antisense oligonucleotides of the following EGR-1 binding sequence (EBS) were prepared by outsourcing to Bioneer Co., Ltd. (Daejeon, Korea). In this case, the 5'-end of the sense oligonucleotide was labeled with biotin. The sense and antisense oligonucleotides were heated at 95 °C for 5 minutes and then left overnight at room temperature to hybridize the sense and antisense oligonucleotides. Hereinafter, the hybridized sense and antisense oligonucleotides are referred to as biotin-EBS. • Sense sequence: biotin-5'-[…]-3' • Antisense sequence: 5'-[…]-3'
Avidin protein was coated on a 96-well plate (purchased from Thermo Fisher Scientific), and biotin-EBS was added to the plate at a concentration of 0.5 pmol/50 µL/well, followed by reaction at 37 °C for 1 hour to allow biotin-EBS oligonucleotide to be attached to the plate. After washing three times with phosphate buffer saline containing 0.05% Tween 20 (PBS/Tween 20) to remove unattached biotin-EBS oligonucleotides, 200 µL of PBS/Tween 20 solution containing 2% bovine serum albumin (BSA) was added to each well, followed by reaction at 37 °C for 1 hour to block the surface of the plate where no oligonucleotide was attached.
The solution containing the sample compound and the EGR-1 protein was added to the biotin-EBS oligonucleotide coated plate prepared in step (2).
The compound sample (1 µL) was reacted with the EGR-1 overexpressing cell lysate containing 10 mM Tris, pH 7.5, 50 mM KCl, 2% BSA and 8% glycerol at room temperature for 30 minutes, and then added to a reaction well coated with biotin-EBS and further reacted at room temperature for one hour. After washing three times with PBS/Tween 20 solution, an EGR-1 antibody was added to the PBS solution supplemented with 2% BSA and 5 mM NaCl in an amount of 50 µL per each well. The mixture was incubated at room temperature for one hour, washed three times with PBS/Tween 20 solution, and then treated with horseradish peroxidase-conjugated secondary antibody (Goat anti-rabbit IgG antibody, Cell Signaling Technology company, Danvers, Mass., USA) diluted by 1:1000 at room temperature for one hour. After washing five times with PBS/Tween 20 solution, a substrate tetramethylbenzidine solution was added to each well in an amount of 50 µL. After reacting for 5 minutes, the reaction was stopped by adding 100 µL of 2 N sulfuric acid solution. The DNA binding inhibitory activity of EGR-1 was measured by absorbance at 450 nm according to Equation 1 below. EGR-1 DNA binding inhibitory activity (%) = 100−{(As/Ap)×100} [formula]
As: absorbance of a sample prepared by reacting an EGR-1-overexpressing cell lysate with the compound.
Ap: absorbance of the sample treated only with EGR-1-overexpressing cell lysate.

Sequence of EGR-1 (P18146 whole entry): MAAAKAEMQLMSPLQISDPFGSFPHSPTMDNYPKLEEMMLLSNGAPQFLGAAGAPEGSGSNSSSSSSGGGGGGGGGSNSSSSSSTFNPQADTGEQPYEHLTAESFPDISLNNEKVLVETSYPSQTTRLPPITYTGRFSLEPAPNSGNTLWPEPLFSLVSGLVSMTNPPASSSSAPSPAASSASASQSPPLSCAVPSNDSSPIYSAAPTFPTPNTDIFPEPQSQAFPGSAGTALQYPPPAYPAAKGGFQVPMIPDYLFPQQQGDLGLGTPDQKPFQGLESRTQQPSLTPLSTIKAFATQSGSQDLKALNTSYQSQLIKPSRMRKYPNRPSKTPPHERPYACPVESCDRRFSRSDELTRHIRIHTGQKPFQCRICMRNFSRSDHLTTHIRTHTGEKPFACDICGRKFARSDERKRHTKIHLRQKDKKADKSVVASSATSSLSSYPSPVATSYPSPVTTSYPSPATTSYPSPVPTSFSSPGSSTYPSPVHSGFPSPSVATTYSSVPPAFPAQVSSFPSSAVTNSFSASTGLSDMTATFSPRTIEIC

| SMILES | Inhibition Rate (%) |
| --- | --- |
| NNC(=S)Nc1cccc(C(F)(F)F)c1 [Compound 1, N-(3-(trifluoromethyl)phenyl)hydrazinethioamide] | 23.60% |
| NNC(=S)Nc1ccc(F)cc1 [Compound 2, N-(4-fluorophenyl)hydrazinethioamide] | 25.70% |
| NNC(=S)Nc1ccc(Br)cc1 [Compound 3, N-(4-bromophenyl)hydrazinethioamide] | 20.73% |
| N#Cc1ccc(NC(=S)NN)cc1 [Compound 4, N-(4-cyanophenyl)hydrazinethioamide] | 16.27% |
| NNC(=S)Nc1ccc(C(F)(F)F)cc1 [Compound 5, N-(4-(trifluoromethyl)phenyl)hydrazinethioamide] | 6.33% |
| CCNC(=S)NN [Compound 6, N-ethylhydrazinethioamide] | 27.00% |
| CC(C)NC(=S)NN [Compound 7, N-isopropylhydrazinethioamide] | 23.33% |
| CC(C)CNC(=S)NN [Compound 8, N-isobutylhydrazinethioamide] | 38.73% |
| NNC(=S)NC(=O)c1ccccc1 [Compound 9, N-(hydrazinocarbonothioyl)benzamide] | 42.17% |
| NNC(=S)NCc1ccccc1 [Compound 10, N-benzylhydrazinethioamide] | 35.47% |
| Cc1cccc(NC(=S)NN)c1 [Compound 11, N-(m-tolyl)hydrazinethioamide] | 18.67% |
| O=C1Nc2ccc(F)cc2/C1=N/NC(=S)Nc1ccccc1 [Compound 12, (Z)-2-(5-fluoro-2-oxoindolin-3-ylidene)-N-phenylhydrazinethioamide] | 28.97% |
| O=C1Nc2ccc(F)cc2/C1=N/NC(=S)Nc1cccc([N+](=O)[O-])c1 [Compound 13, (Z)-2-(5-fluoro-2-oxoindolin-3-ylidene)-N-(3-nitrophenyl)hydrazinethioamide] | 25.57% |
| O=C1Nc2ccc(F)cc2/C1=N/NC(=S)Nc1ccc(F)cc1 [Compound 14, (Z)-2-(5-fluoro-2-oxoindolin-3-ylidene)-N-(4-fluorophenyl)hydrazinethioamide] | 17.80% |
| O=C1Nc2ccc(F)cc2/C1=N/NC(=S)Nc1ccc(Br)cc1 [Compound 15, (Z)-N-(4-bromophenyl)-2-(5-fluoro-2-oxoindolin-3-ylidene)hydrazinethioamide] | 37.07% |
| N#Cc1ccc(NC(=S)N/N=C2\C(=O)Nc3ccc(F)cc32)cc1 [Compound 16, (Z)-N-(4-cyanophenyl)-2-(5-fluoro-2-oxoindolin-3-ylidene)hydrazinethioamide] | 40.57% |
| O=C1Nc2ccc(F)cc2/C1=N/NC(=S)Nc1ccc(C(F)(F)F)cc1 [Compound 17, (Z)-2-(5-fluoro-2-oxoindolin-3-ylidene)-N-(4-(trifluoromethyl)phenyl)hydrazinethioamide] | 25.57% |
| O=C1Nc2c(F)cccc2/C1=N/NC(=S)Nc1ccc(F)cc1 [Compound 18, (Z)-2-(7-fluoro-2-oxoindolin-3-ylidene)-N-(4-fluorophenyl)hydrazinethioamide] | 33.80% |
| O=C1Nc2c(F)cccc2/C1=N/NC(=S)Nc1ccc(Br)cc1 [Compound 19, (Z)-N-(4-bromophenyl)-2-(7-fluoro-2-oxoindolin-3-ylidene)hydrazinethioamide] | 47.77% |

| SMILES | Inhibition Rate (%) |
| --- | --- |
| N#Cc1ccc(NC(=S)N/N=C2\C(=O)Nc3c(F)cccc32)cc1 [Compound 20, (Z)-N-(4-cyanophenyl)-2-(7-fluoro-2-oxoindolin-3-ylidene)hydrazinethioamide] | 44.93% |
| COc1ccc2c(c1)NC(=O)/C2=N\NC(=S)Nc1ccccc1 [Compound 22, (Z)-2-(6-methoxy-2-oxoindolin-3-ylidene)-N-phenylhydrazinethioamide] | 51.33% |
| COc1ccc2c(c1)NC(=O)/C2=N\NC(=S)Nc1ccccc1OC [Compound 24, (Z)-2-(6-methoxy-2-oxoindolin-3-ylidene)-N-(2-methoxyphenyl)hydrazin-1-carbothioamide] | 42.00% |
| COc1ccc2c(c1)NC(=O)/C2=N\NC(=S)Nc1ccc(C(F)(F)F)cc1 [Compound 26, (Z)-2-(6-methoxy-2-oxoindolin-3-ylidene)-N-(4-(trifluoromethyl)phenyl)hydrazinethioamide] | 49.67% |
| CCNC(=S)N/N=C1\C(=O)Nc2cc(OC)ccc21 [Compound 27, (Z)-N-ethyl-2-(6-methoxy-2-oxoindolin-3-ylidene)hydrazinethioamide] | 44.00% |
| COc1ccc2c(c1)NC(=O)/C2=N\NC(=S)Nc1cccc(C)c1 [Compound 28, (Z)-2-(6-methoxy-2-oxoindolin-3-ylidene)-N-(m-tolyl)hydrazinethioamide] | 28.67% |
| Cc1ccc2c(c1)/C(=N/NC(=S)Nc1ccccc1)C(=O)N2 [Compound 29, (Z)-2-(5-methyl-2-oxoindolin-3-ylidene)-N-phenylhydrazinethioamide] | 27.50% |
| Cc1ccc2c(c1)/C(=N/NC(=S)Nc1cccc([N+](=O)[O-])c1)C(=O)N2 [Compound 30, (Z)-2-(5-methyl-2-oxoindolin-3-ylidene)-N-(3-nitrophenyl)hydrazinethioamide] | 32.70% |
| COc1ccccc1NC(=S)N/N=C1\C(=O)Nc2ccc(C)cc21 [Compound 31, (Z)-N-(2-methoxyphenyl)-2-(5-methyl-2-oxoindolin-3-ylidene)hydrazinethioamide] | 42.73% |
| Cc1ccc2c(c1)/C(=N/NC(=S)Nc1cccc(C(F)(F)F)c1)C(=O)N2 [Compound 32, (Z)-2-(5-methyl-2-oxoindolin-3-ylidene)-N-(3-(trifluoromethyl)phenyl)hydrazinethioamide] | 40.93% |
| Cc1ccc2c(c1)/C(=N/NC(=S)Nc1ccc(F)cc1)C(=O)N2 [Compound 33, (Z)-N-(4-fluorophenyl)-2-(5-methyl-2-oxoindolin-3-ylidene)hydrazinethioamide] | 37.77% |
| NC(=S)N/N=C1\C(=O)Nc2ccc(Br)cc21 [Compound 34, (Z)-2-(5-bromo-2-oxoindolin-3-ylidene)hydrazinethioamide] | 46.00% |
| O=C1Nc2cccc(Br)c2/C1=N/NC(=S)Nc1cccc([N+](=O)[O-])c1 [Compound 35, (Z)-2-(4-bromo-2-oxoindolin-3-ylidene)-N-(3-nitrophenyl)hydrazinethioamide] | 55.33% |
| O=C1Nc2cc(Br)ccc2/C1=N/NC(=S)Nc1cccc([N+](=O)[O-])c1 [Compound 36, (Z)-2-(6-bromo-2-oxoindolin-3-ylidene)-N-(3-nitrophenyl)hydrazinethioamide] | 46.33% |
| O=C1Nc2cccc(Br)c2/C1=N/NC(=S)Nc1ccc([N+](=O)[O-])cc1 [Compound 37, (Z)-2-(4-bromo-2-oxoindolin-3-ylidene)-N-(4-nitrophenyl)hydrazinethioamide] | 36.33% |
| O=C1Nc2ccc(Br)cc2/C1=N/NC(=S)Nc1ccc([N+](=O)[O-])cc1 [Compound 38, (Z)-2-(5-bromo-2-oxoindolin-3-ylidene)-N-(4-nitrophenyl)hydrazinethioamide] | 51.33% |
| COc1ccccc1NC(=S)N/N=C1\C(=O)Nc2ccccc21 [Compound 39, (Z)-N-(2-methoxyphenyl)-2-(2-oxoindolin-3-ylidene)hydrazinethioamide] | 47.33% |
| NC(=S)N/N=C1\C(=O)Nc2cccc(Br)c21 [Compound 40, (Z)-2-(4-bromo-2-oxoindolin-3-ylidene)hydrazinethioamide] | 27.33% |
| NC(=S)N/N=C1\C(=O)Nc2cc(Br)ccc21 [Compound 41, (Z)-2-(6-bromo-2-oxoindolin-3-ylidene)hydrazinethioamide] | 49.00% |
